Tests used:
[1] = target: T1, Melanin-concentrating hormone receptor 1 (Homo sapiens, UniProt Q99705); experiment: Inhibition of human MCH1 receptor by SPA assay
[2] = target: T1, Melanin-concentrating hormone receptor 1; experiment: Displacement of [125I]MCH from human MCH1 receptor expressed in CHO cell by WC assay; assay type: cell-based
[3] = target: T1, Melanin-concentrating hormone receptor 1; experiment: […] human MCH1 receptor expressed in CHO cell by IP3 assay; assay type: cell-based

T1 sequence (Q99705 whole entry): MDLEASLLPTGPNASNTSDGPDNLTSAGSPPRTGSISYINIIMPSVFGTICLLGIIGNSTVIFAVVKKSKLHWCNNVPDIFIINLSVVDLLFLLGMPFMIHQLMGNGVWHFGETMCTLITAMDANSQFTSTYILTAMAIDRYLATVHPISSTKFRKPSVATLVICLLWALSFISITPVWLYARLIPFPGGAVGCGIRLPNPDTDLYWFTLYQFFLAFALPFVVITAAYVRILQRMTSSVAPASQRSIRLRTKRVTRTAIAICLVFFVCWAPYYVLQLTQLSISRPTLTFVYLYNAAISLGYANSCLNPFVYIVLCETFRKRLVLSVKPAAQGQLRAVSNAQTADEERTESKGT

SMILES	IC50 [1]	IC50 [2]	IC50 [3]
Cc1cc(N(C)CCN(C)C)nc2ccc(NC(=O)/C=C/c3ccccc3Cl)cc12	2540 nM		
Cc1cc(N(C)CCN(C)C)nc2ccc(NC(=O)c3ccc(-c4ccc(C(F)(F)F)cc4)cc3)cc12		10 nM	
Cc1cc(N2C[C@@H](C)N[C@@H](C)C2)nc2ccc(NC(=O)COc3ccc(OC(F)(F)F)cc3)cc12	87 nM	44 nM	
Cc1cc(N(C)CCN(C)C)nc2ccc(NC(=O)CCc3ccccc3)cc12	> 10000 nM		
Cc1cc(N(C)CCN(C)C)nc2ccc(NC(=O)C3CCC(c4ccc(Cl)cc4)CC3)cc12 (stereo not drawn)	423 nM	23 nM	393 nM
Cc1cc(N(C)CCN(C)C)nc2ccc(NC(=O)c3ccc(Oc4ccccc4)cc3)cc12	210 nM		
Cc1cc(N(C)CCN(C)C)nc2ccc(NC(=O)CNc3ccc(Cl)cc3Cl)cc12	125 nM		
Cc1cc(N(C)CCN(C)C)nc2ccc(NC(=O)COc3ccccc3)cc12	> 10000 nM		
Cc1cc(N(C)CCN(C)C)nc2ccc(NC(=O)/C=C/c3ccccc3)cc12	6970 nM		
C/C(=C\c1ccccc1)C(=O)Nc1ccc2nc(N(C)CCN(C)C)cc(C)c2c1	9460 nM		
Cc1cc(N(C)CCN(C)C)nc2ccc(NC(=O)Cc3ccc(-c4ccccc4)cc3)cc12	3280 nM		
Cc1oc(-c2ccccc2)nc1CC(=O)Nc1ccc2nc(N(C)CCN(C)C)cc(C)c2c1	568 nM		
Cc1cc(N(C)CCN(C)C)nc2ccc(NC(=O)NCc3ccc(Br)cc3)cc12	271 nM		
Cc1cc(N(C)CCN(C)C)nc2ccc(NC(=O)c3ccc(Oc4ccccc4)nc3)cc12	105 nM		
Cc1cc(N(C)CCN(C)C)nc2ccc(NC(=O)c3cc4ccccc4s3)cc12	2100 nM		
Cc1cc(N(C)CCN(C)C)nc2ccc(NC(=O)c3ccc(OC(F)(F)F)cc3)cc12	2760 nM		
Cc1cc(N(C)CCN(C)C)nc2ccc(NC(=O)CCc3nc(-c4ccccc4)c(-c4ccccc4)o3)cc12	162 nM		
Cc1cc(NCCN(C(C)C)C(C)C)nc2ccc(NC(=O)COc3ccc(OC(F)(F)F)cc3)cc12		7.1 nM	
Cc1cc(N2CCCNCC2)nc2ccc(NC(=O)COc3ccc(OC(F)(F)F)cc3)cc12		2 nM	
Cc1cc(N(C)CCN(C)C)nc2ccc(NC(=O)C3CC3c3ccccc3)cc12 (racemic)	> 10000 nM		

Further molecules by falling IC50 [1], results first:

IC50 [1]	IC50 [2]	IC50 [3]	SMILES
83 nM	33 nM	807 nM	Cc1cc(N(C)CCN(C)C)nc2ccc(NC(=O)COc3ccc(Cl)cc3)cc12
48 nM	17 nM	478 nM	Cc1ccc(/C=C/C(=O)Nc2ccc3nc(N(C)CCN(C)C)cc(C)c3c2)cc1
42 nM	5.7 nM	25 nM	Cc1cc(N(C)CCN(C)C)nc2ccc(NC(=O)c3ccc(-c4ccccc4)cc3)cc12
40 nM	13 nM	91 nM	Cc1cc(NC2CCN(Cc3ccccc3)CC2)nc2ccc(NC(=O)COc3ccc(OC(F)(F)F)cc3)cc12
40 nM	14 nM		Cc1cc(N(C)CCN(C)C)nc2ccc(NC(=O)CCc3ccc(OC(F)(F)F)cc3)cc12
20 nM	3.7 nM	244 nM	Cc1cc(N2CCCN(C)CC2)nc2ccc(NC(=O)COc3ccc(OC(F)(F)F)cc3)cc12
20 nM	3.4 nM		Cc1cc(N2C[C@@H](C)NC[C@@H]2C)nc2ccc(NC(=O)COc3ccc(OC(F)(F)F)cc3)cc12 (racemic)
18 nM	4.1 nM	100 nM	Cc1cc(N2CCN[C@H](C)C2)nc2ccc(NC(=O)COc3ccc(OC(F)(F)F)cc3)cc12
18 nM	2.3 nM	31 nM	Cc1cc(N(C)CCN(C)C)nc2ccc(NC(=O)COc3ccc(OC(F)(F)F)cc3)cc12
18 nM	5.3 nM		Cc1cc(NCCN(C)C)nc2ccc(NC(=O)COc3ccc(OC(F)(F)F)cc3)cc12
16 nM	4.7 nM		Cc1cc(NCC(C)(C)CN(C)C)nc2ccc(NC(=O)COc3ccc(OC(F)(F)F)cc3)cc12
15 nM	3.2 nM		CCN(CC)CCNc1cc(C)c2cc(NC(=O)COc3ccc(OC(F)(F)F)cc3)ccc2n1
13 nM	3.7 nM		Cc1cc(N2CCN[C@@H](C)C2)nc2ccc(NC(=O)COc3ccc(OC(F)(F)F)cc3)cc12
9.6 nM	1.3 nM		Cc1cc(NCCN2CCOCC2)nc2ccc(NC(=O)COc3ccc(OC(F)(F)F)cc3)cc12
5.3 nM	0.91 nM	33 nM	Cc1cc(NCCN2CCCCC2)nc2ccc(NC(=O)COc3ccc(OC(F)(F)F)cc3)cc12
5 nM	1.7 nM		Cc1cc(N2CCN(CCO)CC2)nc2ccc(NC(=O)COc3ccc(OC(F)(F)F)cc3)cc12
